Source: PubChem BioAssay AID2060907 (Molecular Pharmacology Branch, DTP, NCI, 2025)
pIC50: −log10 of the molar value.

System: 388556-164-R-J1-PDC complex spheroid viability
Assay: Anticancer human tumor 388556-164-R-J1-PDC patient-derived colon adenocarcinoma cell line growth inhibition [RAS]
Conditions: for pIC50: curve of first compound; for viability, T/C: stronger effect = lower value
How it was run: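 Multi-cell-type spheroids: tumor cells plus HUVEC endothelial cells and mesenchymal stem cells. RAS-pathway inhibitors were combined with targeted agents, each dosed in half-log steps down from clinical Cmax, or from 10 microM when Cmax was unknown.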
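Further: spheroids exposed to compound for 7 days before readout.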
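Wherever viability, T/C is given: 100% = DMSO vehicle control luminescence.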

CC(C)n1nc(-c2ccc3oc(N)nc3c2)c2c(N)ncnc21 + CCn1c(-c2cc(N3CCN(C)CC3)cnc2C(C)OC)c2c3cc(ccc31)-c1csc(n1)CC(NC(=O)C1CC1C)C(=O)N1CCCC(N1)C(=O)OCC(C)(C)C2
pIC50 (second compound 0.000949 µM): 7.36
pIC50 (second compound 0.003 µM): 7.45
pIC50 (second compound 0.00949 µM): 7.79
pIC50 (second compound 0.03 µM): 8.28
pIC50 (second compound 0.0949 µM): > 9.50
pIC50 (second compound 0.3 µM): > 9.50
viability, T/C (second compound 0.000949 µM, first compound 0.000316 µM): 107%
viability, T/C (second compound 0.000949 µM, first compound 0.001 µM): 94.8%
viability, T/C (second compound 0.000949 µM, first compound 0.00316 µM): 73.7%
viability, T/C (second compound 0.000949 µM, first compound 0.01 µM): 71.5%
viability, T/C (second compound 0.000949 µM, first compound 0.0316 µM): 56.4%
viability, T/C (second compound 0.000949 µM, first compound 0.1 µM): 38%
viability, T/C (second compound 0.003 µM, first compound 0.000316 µM): 88.3%
viability, T/C (second compound 0.003 µM, first compound 0.001 µM): 80.4%
viability, T/C (second compound 0.003 µM, first compound 0.00316 µM): 72.2%
viability, T/C (second compound 0.003 µM, first compound 0.01 µM): 68.1%
viability, T/C (second compound 0.003 µM, first compound 0.0316 µM): 50.8%
viability, T/C (second compound 0.003 µM, first compound 0.1 µM): 34.9%
viability, T/C (second compound 0.00949 µM, first compound 0.000316 µM): 82.4%
viability, T/C (second compound 0.00949 µM, first compound 0.001 µM): 78.9%
viability, T/C (second compound 0.00949 µM, first compound 0.00316 µM): 59.4%
viability, T/C (second compound 0.00949 µM, first compound 0.01 µM): 56.5%
viability, T/C (second compound 0.00949 µM, first compound 0.0316 µM): 47.1%
viability, T/C (second compound 0.00949 µM, first compound 0.1 µM): 27.2%
viability, T/C (second compound 0.03 µM, first compound 0.000316 µM): 60.6%
viability, T/C (second compound 0.03 µM, first compound 0.001 µM): 55.1%
viability, T/C (second compound 0.03 µM, first compound 0.00316 µM): 62.5%
viability, T/C (second compound 0.03 µM, first compound 0.01 µM): 37.6%
viability, T/C (second compound 0.03 µM, first compound 0.0316 µM): 34.4%
viability, T/C (second compound 0.03 µM, first compound 0.1 µM): 21.5%
viability, T/C (second compound 0.0949 µM, first compound 0.000316 µM): 46.3%
viability, T/C (second compound 0.0949 µM, first compound 0.001 µM): 42.1%
viability, T/C (second compound 0.0949 µM, first compound 0.00316 µM): 39.1%
viability, T/C (second compound 0.0949 µM, first compound 0.01 µM): 34.4%
viability, T/C (second compound 0.0949 µM, first compound 0.0316 µM): 27.9%
viability, T/C (second compound 0.0949 µM, first compound 0.1 µM): 18.2%
viability, T/C (second compound 0.3 µM, first compound 0.000316 µM): 30.6%
viability, T/C (second compound 0.3 µM, first compound 0.001 µM): 32.6%
viability, T/C (second compound 0.3 µM, first compound 0.00316 µM): 27.9%
viability, T/C (second compound 0.3 µM, first compound 0.01 µM): 23.5%
viability, T/C (second compound 0.3 µM, first compound 0.0316 µM): 20.9%
viability, T/C (second compound 0.3 µM, first compound 0.1 µM): 17.1%

C=CC(=O)Nc1cc(Nc2nccc(-c3cn(C)c4ccccc34)n2)c(OC)cc1N(C)CCN(C)C + C=CC(=O)N1CCN(c2nc(OCC3CCCN3C)nc3c(F)c(-c4nc(N)cc(C)c4C(F)(F)F)c(Cl)cc23)C(C)C1
pIC50 (second compound 0.00316 µM): < 6.00
pIC50 (second compound 0.01 µM): < 6.00
pIC50 (second compound 0.0316 µM): < 6.00
pIC50 (second compound 0.1 µM): < 6.00
pIC50 (second compound 0.316 µM): < 6.00
pIC50 (second compound 1 µM): < 6.00
viability, T/C (second compound 0.00316 µM, first compound 0.00316 µM): 110%
viability, T/C (second compound 0.00316 µM, first compound 0.01 µM): 99.2%
viability, T/C (second compound 0.00316 µM, first compound 0.0316 µM): 92.6%
viability, T/C (second compound 0.00316 µM, first compound 0.1 µM): 80.3%
viability, T/C (second compound 0.00316 µM, first compound 0.316 µM): 68.6%
viability, T/C (second compound 0.00316 µM, first compound 1 µM): 52.8%
viability, T/C (second compound 0.01 µM, first compound 0.00316 µM): 104%
viability, T/C (second compound 0.01 µM, first compound 0.01 µM): 103%
viability, T/C (second compound 0.01 µM, first compound 0.0316 µM): 101%
viability, T/C (second compound 0.01 µM, first compound 0.1 µM): 90.1%
viability, T/C (second compound 0.01 µM, first compound 0.316 µM): 68.4%
viability, T/C (second compound 0.01 µM, first compound 1 µM): 58%
viability, T/C (second compound 0.0316 µM, first compound 0.00316 µM): 102%
viability, T/C (second compound 0.0316 µM, first compound 0.01 µM): 99%
viability, T/C (second compound 0.0316 µM, first compound 0.0316 µM): 94%
viability, T/C (second compound 0.0316 µM, first compound 0.1 µM): 87.3%
viability, T/C (second compound 0.0316 µM, first compound 0.316 µM): 70.3%
viability, T/C (second compound 0.0316 µM, first compound 1 µM): 61.2%
viability, T/C (second compound 0.1 µM, first compound 0.00316 µM): 100%
viability, T/C (second compound 0.1 µM, first compound 0.01 µM): 99.4%
viability, T/C (second compound 0.1 µM, first compound 0.0316 µM): 91.1%
viability, T/C (second compound 0.1 µM, first compound 0.1 µM): 90.6%
viability, T/C (second compound 0.1 µM, first compound 0.316 µM): 72.9%
viability, T/C (second compound 0.1 µM, first compound 1 µM): 54.6%
viability, T/C (second compound 0.316 µM, first compound 0.00316 µM): 99.2%
viability, T/C (second compound 0.316 µM, first compound 0.01 µM): 110%
viability, T/C (second compound 0.316 µM, first compound 0.0316 µM): 103%
viability, T/C (second compound 0.316 µM, first compound 0.1 µM): 94.5%
viability, T/C (second compound 0.316 µM, first compound 0.316 µM): 76.1%
viability, T/C (second compound 0.316 µM, first compound 1 µM): 58.8%
viability, T/C (second compound 1 µM, first compound 0.00316 µM): 90.6%
viability, T/C (second compound 1 µM, first compound 0.01 µM): 100%
viability, T/C (second compound 1 µM, first compound 0.0316 µM): 93.5%
viability, T/C (second compound 1 µM, first compound 0.1 µM): 96.4%
viability, T/C (second compound 1 µM, first compound 0.316 µM): 73.3%
viability, T/C (second compound 1 µM, first compound 1 µM): 54.9%
